{"source": "paper PMC11873239", "about": "“A covalent chemical probe for Chikungunya nsP2 cysteine protease with antialphaviral activity and proteome-wide selectivity” (Scientific Reports, 2025)", "format_in_all_cases": "binding", "key": {"[1]": {"biological_target": "HEK293 cell lysate proteins and CHIKV nsP2 (Homo sapiens, UniProt Q8NFC6)"}, "[2]": {"biological_target": "HEK293 cell lysate proteins and CHIKV nsP2 (Homo sapiens, UniProt P05090)"}, "[3]": {"biological_target": "HEK293 cell lysate proteins and CHIKV nsP2 (Homo sapiens, UniProt O43290)"}, "[4]": {"biological_target": "HEK293 cell lysate proteins and CHIKV nsP2 (Homo sapiens, UniProt O60231)"}, "[5]": {"biological_target": "HEK293 cell lysate proteins and CHIKV nsP2 (Homo sapiens, UniProt P04040)"}, "[6]": {"biological_target": "HEK293 cell lysate proteins and CHIKV nsP2 (Homo sapiens, UniProt O14617)"}, "[7]": {"biological_target": "HEK293 cell lysate proteins and CHIKV nsP2 (Homo sapiens, UniProt Q5T749)"}, "[8]": {"biological_target": "HEK293 cell lysate proteins and CHIKV nsP2 (Homo sapiens, UniProt P27816)"}, "[9]": {"biological_target": "HEK293 cell lysate proteins and CHIKV nsP2 (Homo sapiens, UniProt P07355)"}, "[10]": {"biological_target": "HEK293 cell lysate proteins and CHIKV nsP2 (Homo sapiens, UniProt P59665)"}, "[11]": {"biological_target": "HEK293 cell lysate proteins and CHIKV nsP2 (Homo sapiens, UniProt Q96P63)", "sequence (Q96P63 whole entry)": "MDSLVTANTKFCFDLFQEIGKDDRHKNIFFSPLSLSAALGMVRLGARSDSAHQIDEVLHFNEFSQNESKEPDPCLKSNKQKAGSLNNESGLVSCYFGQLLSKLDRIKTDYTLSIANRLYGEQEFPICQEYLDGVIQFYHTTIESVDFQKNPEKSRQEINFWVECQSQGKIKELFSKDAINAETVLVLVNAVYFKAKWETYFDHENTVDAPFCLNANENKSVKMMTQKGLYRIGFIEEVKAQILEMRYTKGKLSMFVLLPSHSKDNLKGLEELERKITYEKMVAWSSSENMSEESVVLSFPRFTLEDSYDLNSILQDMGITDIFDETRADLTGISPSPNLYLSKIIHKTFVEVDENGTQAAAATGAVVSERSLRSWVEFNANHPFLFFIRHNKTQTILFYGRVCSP"}, "[12]": {"biological_target": "HEK293 cell lysate proteins and CHIKV nsP2 (Homo sapiens, UniProt P10599)"}, "[13]": {"biological_target": "HEK293 cell lysate proteins and CHIKV nsP2 (Homo sapiens, UniProt P08621)"}, "[14]": {"biological_target": "HEK293 cell lysate proteins and CHIKV nsP2 (Homo sapiens, UniProt Q14562)"}, "[15]": {"biological_target": "HEK293 cell lysate proteins and CHIKV nsP2 (Homo sapiens, UniProt P81605)", "sequence (P81605 20-110)": "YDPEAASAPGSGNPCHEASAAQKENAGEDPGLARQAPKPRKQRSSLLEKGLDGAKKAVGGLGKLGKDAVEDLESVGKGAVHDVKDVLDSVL"}, "[16]": {"biological_target": "HEK293 cell lysate proteins and CHIKV nsP2 (Homo sapiens, UniProt Q99549)"}, "[17]": {"biological_target": "HEK293 cell lysate proteins and CHIKV nsP2 (Homo sapiens, UniProt P60709)"}, "[18]": {"biological_target": "HEK293 cell lysate proteins and CHIKV nsP2 (Homo sapiens, UniProt Q01469)"}, "[19]": {"biological_target": "HEK293 cell lysate proteins and CHIKV nsP2 (Homo sapiens, UniProt Q9UKV3)"}, "[20]": {"biological_target": "HEK293 cell lysate proteins and CHIKV nsP2 (Homo sapiens, UniProt P05109)", "sequence (P05109 whole entry)": "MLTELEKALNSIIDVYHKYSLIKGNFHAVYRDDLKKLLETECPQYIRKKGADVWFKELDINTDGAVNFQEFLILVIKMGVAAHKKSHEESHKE"}, "[21]": {"biological_target": "HEK293 cell lysate proteins and CHIKV nsP2 (Homo sapiens, UniProt Q00610)", "sequence (Q00610 whole entry)": "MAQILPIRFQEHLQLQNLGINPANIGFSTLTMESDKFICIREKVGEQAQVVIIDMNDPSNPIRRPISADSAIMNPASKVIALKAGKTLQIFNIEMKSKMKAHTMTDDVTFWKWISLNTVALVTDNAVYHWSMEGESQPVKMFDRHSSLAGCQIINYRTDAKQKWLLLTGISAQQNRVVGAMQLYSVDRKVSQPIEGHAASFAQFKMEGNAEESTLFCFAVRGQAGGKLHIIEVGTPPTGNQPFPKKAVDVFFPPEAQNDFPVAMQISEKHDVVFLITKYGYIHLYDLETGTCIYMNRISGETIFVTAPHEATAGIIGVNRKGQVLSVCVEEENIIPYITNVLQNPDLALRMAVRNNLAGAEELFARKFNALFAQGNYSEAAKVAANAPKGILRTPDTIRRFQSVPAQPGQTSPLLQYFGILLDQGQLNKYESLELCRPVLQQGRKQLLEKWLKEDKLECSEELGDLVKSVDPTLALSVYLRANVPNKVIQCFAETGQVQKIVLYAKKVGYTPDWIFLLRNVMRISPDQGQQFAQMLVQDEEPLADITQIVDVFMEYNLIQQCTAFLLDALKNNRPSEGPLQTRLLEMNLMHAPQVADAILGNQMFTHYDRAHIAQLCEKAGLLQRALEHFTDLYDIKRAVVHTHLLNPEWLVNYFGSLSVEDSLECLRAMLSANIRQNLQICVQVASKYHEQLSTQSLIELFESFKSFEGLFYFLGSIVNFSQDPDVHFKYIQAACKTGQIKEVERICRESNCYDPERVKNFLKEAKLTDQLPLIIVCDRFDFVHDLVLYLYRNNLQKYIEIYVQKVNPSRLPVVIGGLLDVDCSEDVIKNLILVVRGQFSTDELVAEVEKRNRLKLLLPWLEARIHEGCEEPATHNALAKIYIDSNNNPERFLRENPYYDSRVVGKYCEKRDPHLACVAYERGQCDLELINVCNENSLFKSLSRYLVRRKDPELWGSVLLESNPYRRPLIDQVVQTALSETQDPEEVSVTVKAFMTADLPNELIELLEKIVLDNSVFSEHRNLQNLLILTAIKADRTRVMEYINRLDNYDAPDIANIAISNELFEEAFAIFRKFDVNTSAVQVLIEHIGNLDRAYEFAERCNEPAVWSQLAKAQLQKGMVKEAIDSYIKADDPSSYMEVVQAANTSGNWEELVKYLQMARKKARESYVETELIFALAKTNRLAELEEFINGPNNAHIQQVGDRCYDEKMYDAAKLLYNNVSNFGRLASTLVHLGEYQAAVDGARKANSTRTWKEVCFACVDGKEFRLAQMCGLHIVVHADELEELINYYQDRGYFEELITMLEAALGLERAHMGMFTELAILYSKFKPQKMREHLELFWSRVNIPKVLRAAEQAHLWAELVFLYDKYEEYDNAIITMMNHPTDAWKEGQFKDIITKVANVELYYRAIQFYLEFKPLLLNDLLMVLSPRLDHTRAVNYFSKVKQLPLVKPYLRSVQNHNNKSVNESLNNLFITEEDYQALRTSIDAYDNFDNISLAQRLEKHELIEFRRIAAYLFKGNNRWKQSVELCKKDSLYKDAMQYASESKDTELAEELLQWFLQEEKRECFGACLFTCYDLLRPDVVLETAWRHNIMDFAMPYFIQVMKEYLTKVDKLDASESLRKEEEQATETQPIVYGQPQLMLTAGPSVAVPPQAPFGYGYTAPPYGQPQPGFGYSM"}, "[22]": {"biological_target": "HEK293 cell lysate proteins and CHIKV nsP2 (Homo sapiens, UniProt Q9Y5B9)"}, "[23]": {"biological_target": "HEK293 cell lysate proteins and CHIKV nsP2 (Homo sapiens, UniProt Q9Y520)"}, "[24]": {"biological_target": "HEK293 cell lysate proteins and CHIKV nsP2 (Homo sapiens, UniProt Q8NI27)"}, "[25]": {"biological_target": "HEK293 cell lysate proteins and CHIKV nsP2 (Homo sapiens, UniProt Q15517)"}, "[26]": {"biological_target": "HEK293 cell lysate proteins and CHIKV nsP2 (Homo sapiens, UniProt A8K2U0)"}, "[27]": {"biological_target": "HEK293 cell lysate proteins and CHIKV nsP2 (Homo sapiens, UniProt Q9NWH9)", "sequence (Q9NWH9 whole entry, looked up)": "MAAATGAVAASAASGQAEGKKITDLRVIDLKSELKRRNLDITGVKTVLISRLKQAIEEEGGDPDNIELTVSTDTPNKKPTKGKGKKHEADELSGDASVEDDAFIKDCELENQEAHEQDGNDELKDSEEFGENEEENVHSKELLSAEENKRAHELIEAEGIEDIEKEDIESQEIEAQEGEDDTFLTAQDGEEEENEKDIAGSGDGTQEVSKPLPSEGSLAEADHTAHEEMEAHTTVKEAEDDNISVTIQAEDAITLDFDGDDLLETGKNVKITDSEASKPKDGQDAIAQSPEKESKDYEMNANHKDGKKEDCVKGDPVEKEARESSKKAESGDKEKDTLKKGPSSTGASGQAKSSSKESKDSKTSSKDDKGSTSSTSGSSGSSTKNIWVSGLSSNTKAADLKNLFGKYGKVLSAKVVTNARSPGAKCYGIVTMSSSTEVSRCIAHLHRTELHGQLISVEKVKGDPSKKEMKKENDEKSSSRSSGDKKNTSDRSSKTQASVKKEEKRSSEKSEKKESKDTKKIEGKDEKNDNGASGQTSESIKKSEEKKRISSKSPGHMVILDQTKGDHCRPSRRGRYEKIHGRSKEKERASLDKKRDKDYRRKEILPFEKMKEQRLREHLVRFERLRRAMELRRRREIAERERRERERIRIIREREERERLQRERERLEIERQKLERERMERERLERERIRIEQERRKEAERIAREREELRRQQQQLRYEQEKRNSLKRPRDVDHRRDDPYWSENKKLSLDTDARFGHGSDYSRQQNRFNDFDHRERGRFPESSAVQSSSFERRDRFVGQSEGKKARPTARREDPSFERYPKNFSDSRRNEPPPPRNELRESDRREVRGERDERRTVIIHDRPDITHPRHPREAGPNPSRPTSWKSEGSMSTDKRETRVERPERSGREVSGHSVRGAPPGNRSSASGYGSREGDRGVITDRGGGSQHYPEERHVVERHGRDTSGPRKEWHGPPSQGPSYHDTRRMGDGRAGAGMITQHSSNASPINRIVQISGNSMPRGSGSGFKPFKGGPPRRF"}, "[28]": {"biological_target": "HEK293 cell lysate proteins and CHIKV nsP2 (Homo sapiens, UniProt Q92616)"}, "[29]": {"biological_target": "HEK293 cell lysate proteins and CHIKV nsP2 (Homo sapiens, UniProt Q9HCY8)"}, "[30]": {"biological_target": "HEK293 cell lysate proteins and CHIKV nsP2 (Homo sapiens, UniProt O15042)"}, "[31]": {"biological_target": "HEK293 cell lysate proteins and CHIKV nsP2 (Homo sapiens, UniProt P35251)"}, "[32]": {"biological_target": "HEK293 cell lysate proteins and CHIKV nsP2 (Homo sapiens, UniProt P31944)", "sequence (P31944 6-242)": "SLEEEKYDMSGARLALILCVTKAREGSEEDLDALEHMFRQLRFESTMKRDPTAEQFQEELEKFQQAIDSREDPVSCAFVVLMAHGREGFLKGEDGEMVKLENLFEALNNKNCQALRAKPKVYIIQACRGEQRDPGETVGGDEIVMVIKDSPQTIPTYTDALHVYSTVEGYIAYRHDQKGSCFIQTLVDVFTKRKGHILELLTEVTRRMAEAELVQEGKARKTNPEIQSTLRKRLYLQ"}, "[33]": {"biological_target": "HEK293 cell lysate proteins and CHIKV nsP2 (Homo sapiens, UniProt Q5JTH9)"}, "[34]": {"biological_target": "HEK293 cell lysate proteins and CHIKV nsP2 (Homo sapiens, UniProt Q9BQG0)"}, "[35]": {"biological_target": "HEK293 cell lysate proteins and CHIKV nsP2 (Homo sapiens, UniProt Q13428)", "sequence (Q13428 whole entry)": "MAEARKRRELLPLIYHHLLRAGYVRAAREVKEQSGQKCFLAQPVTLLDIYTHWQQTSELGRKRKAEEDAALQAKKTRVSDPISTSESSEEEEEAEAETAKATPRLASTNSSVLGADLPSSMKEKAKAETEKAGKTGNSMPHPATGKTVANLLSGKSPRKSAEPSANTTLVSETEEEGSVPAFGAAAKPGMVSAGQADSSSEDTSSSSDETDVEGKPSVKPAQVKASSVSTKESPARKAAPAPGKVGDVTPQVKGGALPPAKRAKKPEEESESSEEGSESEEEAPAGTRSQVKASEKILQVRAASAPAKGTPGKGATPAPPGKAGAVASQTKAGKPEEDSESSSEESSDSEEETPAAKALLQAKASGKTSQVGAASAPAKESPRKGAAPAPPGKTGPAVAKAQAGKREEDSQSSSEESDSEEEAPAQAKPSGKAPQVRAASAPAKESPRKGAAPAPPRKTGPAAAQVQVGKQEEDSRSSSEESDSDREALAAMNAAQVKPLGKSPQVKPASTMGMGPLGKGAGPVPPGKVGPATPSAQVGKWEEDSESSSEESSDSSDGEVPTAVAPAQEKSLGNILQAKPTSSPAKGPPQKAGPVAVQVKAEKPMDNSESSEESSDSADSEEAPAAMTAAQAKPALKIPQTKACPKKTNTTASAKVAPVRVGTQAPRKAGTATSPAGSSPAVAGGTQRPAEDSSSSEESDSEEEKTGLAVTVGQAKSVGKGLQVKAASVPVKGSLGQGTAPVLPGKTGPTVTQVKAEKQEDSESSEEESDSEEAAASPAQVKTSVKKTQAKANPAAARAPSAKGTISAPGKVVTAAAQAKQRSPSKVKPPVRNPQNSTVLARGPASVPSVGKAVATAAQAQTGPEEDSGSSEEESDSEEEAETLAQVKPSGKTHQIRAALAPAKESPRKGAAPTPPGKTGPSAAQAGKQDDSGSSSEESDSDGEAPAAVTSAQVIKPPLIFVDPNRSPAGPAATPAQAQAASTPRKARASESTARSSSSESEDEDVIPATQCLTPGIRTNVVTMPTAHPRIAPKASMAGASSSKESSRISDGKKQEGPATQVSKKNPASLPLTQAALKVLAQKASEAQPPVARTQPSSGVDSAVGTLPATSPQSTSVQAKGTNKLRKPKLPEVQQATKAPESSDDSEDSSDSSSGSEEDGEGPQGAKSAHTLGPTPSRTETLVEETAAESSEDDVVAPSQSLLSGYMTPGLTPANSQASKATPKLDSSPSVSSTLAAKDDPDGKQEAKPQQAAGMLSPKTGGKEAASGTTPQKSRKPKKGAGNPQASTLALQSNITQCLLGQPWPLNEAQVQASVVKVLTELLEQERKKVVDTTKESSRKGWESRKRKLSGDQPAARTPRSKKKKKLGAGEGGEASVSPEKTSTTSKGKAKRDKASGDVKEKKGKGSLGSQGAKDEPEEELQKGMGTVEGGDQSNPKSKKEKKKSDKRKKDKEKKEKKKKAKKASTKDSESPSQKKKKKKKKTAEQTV"}, "[36]": {"biological_target": "HEK293 cell lysate proteins and CHIKV nsP2 (Homo sapiens, UniProt P21127)"}}, "note": "Several values for one entry are separate records, joined by “and”; a condition that tells them apart may be missing. Identical values can stand only once.", "data": [{"smiles": "C#CCOc1ccccc1-c1cc(C(=O)NC/C=C/S(C)(=O)=O)on1", "note": "[VS, (E)-N-(3-(methylsulfonyl)allyl)−3-(2-(prop-2-yn-1-yloxy)phenyl)isoxazole-5-carboxamide]", "values": [{"measurement": "Log2 fold change", "setting": "[1]", "result": 0.23}, {"measurement": "Log2 fold change", "setting": "[2]", "result": 6.55}, {"measurement": "Log2 fold change", "setting": "[3]", "result": 0.62}, {"measurement": "Log2 fold change", "setting": "[4]", "result": 4.33}, {"measurement": "Log2 fold change", "setting": "[5]", "result": 1.41}, {"measurement": "Log2 fold change", "setting": "[6]", "result": -0.93}, {"measurement": "Log2 fold change", "setting": "[7]", "result": 2.53}, {"measurement": "Log2 fold change", "setting": "[8]", "result": -0.37}, {"measurement": "Log2 fold change", "setting": "[9]", "result": 1.52}, {"measurement": "Log2 fold change", "setting": "[10]", "result": -2.83}, {"measurement": "Log2 fold change", "setting": "[11]", "result": 1.71}, {"measurement": "Log2 fold change", "setting": "[12]", "result": 1.84}, {"measurement": "Log2 fold change", "setting": "[13]", "result": 3.47}, {"measurement": "Log2 fold change", "setting": "[14]", "result": -0.65}, {"measurement": "Log2 fold change", "setting": "[15]", "result": 1.36}, {"measurement": "Log2 fold change", "setting": "[16]", "result": 0.0737}, {"measurement": "Log2 fold change", "setting": "[17]", "result": 1.54}, {"measurement": "Log2 fold change", "setting": "[18]", "result": 2.38}, {"measurement": "Log2 fold change", "setting": "[19]", "result": -1.88}, {"measurement": "Log2 fold change", "setting": "[20]", "result": 1.58}, {"measurement": "Log2 fold change", "setting": "[21]", "result": 3.09}, {"measurement": "Log2 fold change", "setting": "[22]", "result": -3.45}, {"measurement": "Log2 fold change", "setting": "[23]", "result": 0.50}, {"measurement": "Log2 fold change", "setting": "[24]", "result": -0.12}, {"measurement": "Log2 fold change", "setting": "[25]", "result": 1.22}, {"measurement": "Log2 fold change", "setting": "[26]", "result": 1.10}, {"measurement": "Log2 fold change", "setting": "[27]", "result": -0.40}, {"measurement": "Log2 fold change", "setting": "[28]", "result": -2.86}, {"measurement": "Log2 fold change", "setting": "[29]", "result": -1.35}, {"measurement": "Log2 fold change", "setting": "[30]", "result": 0.06}, {"measurement": "Log2 fold change", "setting": "[31]", "result": 0.30}, {"measurement": "Log2 fold change", "setting": "[32]", "result": 1.29}, {"measurement": "Log2 fold change", "setting": "[33]", "result": -0.0263}, {"measurement": "Log2 fold change", "setting": "[34]", "result": -0.66}, {"measurement": "Log2 fold change", "setting": "[35]", "result": "1.02 and 1.32"}, {"measurement": "Log2 fold change", "setting": "[36]", "result": 0.12}]}]}
